How the values were obtained:
[1] = system: Arabidopsis thaliana; test: HTPS (high throughput on soil) - Dicot - Post-emergence; format: in vivo; settings: N/A: not active; for Emax: read-out: HTPS - Dicot - Post Max effect; for HTPS - Dicot - Post ED50: from normalized green area
Summary of the method: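 Single plants per well in sand, greenhouse-grown; at 2-true-leaf stage 5 μL compound in 50% acetone/0.1% tween-20 applied to leaves, top dose 1.5 Kg/Ha, 2.5-fold dilutions, 8 repeats. Green area imaged (11 and 18 DAA) for % inhibition; ED50/ED75/ED90 fitted from dose-response, t-test versus controls.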

[2] = in vitro thermal shift (binding of compound to the target); settings: thermal shift caused by binding of the compound to the (unnamed) target
[3] = system: SETVI; test: In-planta LTP post-emergence, visual phenotype; format: in vivo, Setaria viridis; settings: monocot
Procedure: (§1) A basic panel of eight weed species (Table 3) sowed in 4×4×7 cm plastic pots containing a garden mix (klasmann). Each specie was sowed in a separate pot. In each pot, 10-15 seeds were sowed according to the specie viability. Timing of application determined at a 1-2 true leaf stage. The plants grew for 30 days in a controlled greenhouse (26±2° C. day, 20±2° C. night). Hood irrigation (tap water+Shefer 5:3:8 8 mM) was given at a 50% water content by weight. Two days before application, the tested plants thinned down to three plants per pot. Compounds were soluble in water (DDW), and commercial herbicide control was soluble in formulation B (Table 4). […] Plants were evaluated at 3 time points (4, 8, 12 days after application (DAA)). At each time point, visual phenotyping was recorded using a scale of 0-6 (0: no visible effect, 6: maximum effect). […]
(§2) Post-emergence advanced dose response experiment included 4 species: SETVI, ECHCO, AMAPA, ABUTH (Tables 3, 5). […] Plants were evaluated at 4 time points (6, 12, 18 and 26 DAA). At each time point, visual phenotyping was recorded using a scale of 0-6 (0: no visible effect, 6: maximum effect). […]
(§3) Post-emergence advanced wide panel experiment included 24 weed species (Table 5). […] Visual phenotyping was recorded at 4, 11, 17 and 20 DAA using a scale of 0-6 (0: no visible effect, 6: maximum effect). […]

[4] = system: Eragrostis teff; test: HTPS - Monocot - Pre-emergence; format: in vivo; settings: N/A: not active; for Emax: read-out: HTPS - Monocot - Pre Max effect
Summary of the method: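 Pre-emergence: compound in 50% acetone applied at 30 μL/well onto sown sand (Arabidopsis or Eragrostis teff), max 1.5 Kg/Ha, 2.5-fold dilutions. Green area imaged by RGB, normalized to give % inhibition; ED50, ED75, ED90 from log-dose curves, t-test versus controls.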

[5] = system: ABUTH; test: In-planta LTP post-emergence, visual phenotype; format: in vivo, Abutilon theophrasti; settings: dicot
Procedure: as §1, §2, §3

Row | in vitro Thermal Shift [2] | Structure (SMILES) | Emax [1] | HTPS - Dicot - Post ED50 [1] | IG Inhibited growth (% effect) [3] | HTPS - Monocot - Pre ED50 [4] | Emax [4] | BL Bleaching (% effect) [5]
1 | 13 °C | C[C@@H](N)COc1cccc(C(=O)O)c1 [Compound 154] | 100% | 16 g/ha | IG (60) % | 150 g/ha | 100% | –
2 | 13 °C | CC(N)COc1cccc(C(=O)O)c1 (centres unmarked) [Compound 106] | 100% | 102 g/ha | – | 380 g/ha | 87% | BL (60) %
3 | 4 °C | CCCCOC(=O)c1cccc(OCC(C)N)c1 (centres unmarked) [Compound 112] | 100% | 300 g/ha | – | – | – | –
4 | 4 °C | C#CCOC(=O)c1cccc(OCC(C)N)c1 (centres unmarked) [Compound 111] | 100% | 51 g/ha | IG (60) % | – | – | BL (40) %
